In brackets after ≈: the same amount, converted by molar mass.
Experiments:
[1] = test system: Staphylococcus aureus (ATCC 25923); assay: Antimicrobial assay, broth microdilution, S. aureus; assay type: cell-based; set-up: key to MIC S. aureus: -: no activity; conditions: MIC = 80% growth inhibition, tested 400 to 0.39 µg/mL; for MIC: Staphylococcus aureus, ATCC25923, 12 h at 37 °C
Procedure: (§1) Meanwhile, the antimicrobial assays of compounds 1–9 were screened against Staphylococcus aureus (ATCC 25923), Escherichia coli (ATCC 25922) and Candida albicans (ATCC 10231).
(§2) The antimicrobial assays against S. aureus, E. coli and C. albicans were carried out by the broth microdilution method. The tested organisms were incubated overnight with shaking (200 rpm) in thermostatic oscillation incubator (37 °C) in Mueller Hinton broth (MHB) and liquid Sabourand medium for the bacteria and the fungus, respectively. The microbial inoculum density was adjusted to 1 × 10^6 cfu/mL with 0.9% saline solution by comparison with a MacFarland standard. The tested substances and positive drugs were dissolved in methanol to an initial concentration of 40 mg/mL. 4 μL of initial compound solution and 196 μL of MHB (liquid Sabourand medium for fungus) were added into the first well and mixed evenly. Then 100 μL of solution from the first hole, along with 2 μL of methanol and 98 μL of MHB (liquid Sabourand medium for fungus), were transferred to the second hole, and then shaken up as mixture uniform. The repetitive operation was performed to the eleventh one, from which 100 μL of solution well was discarded. Then, 100 μL of microbial suspension was added to the solutions in 96-well to achieve a final volume of 200 µL and final sample concentrations from 400 to 0.39 µg/mL. The blank well was also incubated with only medium under the same conditions. All experiments were carried out in triplicate and with chloramphenicol and ketoconazole as the positive controls. Optical density measurement for bacteria and fungus was recorded at 620 nm after incubation at 37 °C for 12 and 24 h, respectively. The minimal inhibitory concentration (MIC) was defined as the concentration at which the growth was inhibited 80% of the tested microorganisms.

[2] = test system: Escherichia coli (ATCC 25922); assay: Antimicrobial assay, broth microdilution, E. coli; assay type: cell-based; set-up: key to MIC E. coli: -: no activity; conditions: MIC = 80% growth inhibition, tested 400 to 0.39 µg/mL; for MIC: Escherichia coli, ATCC25922, 12 h at 37 °C; for MIC E. coli: 12 h at 37 °C
Procedure: as §1, §2

[3] = test system: Candida albicans (ATCC 10231); assay: Antimicrobial assay, broth microdilution, C. albicans; assay type: cell-based; set-up: key to MIC C. albicans: -: no activity; conditions: MIC = 80% growth inhibition, tested 400 to 0.39 µg/mL; for MIC C. albicans: 24 h at 37 °C; for MIC: Candida albicans, ATCC10231, 24 h at 37 °C
Procedure: as §1, §2

[4] = test system: human promyelocytic leukemia (HL60) cell line; assay: cells; conditions: HL-60, read-out: IC50 cytotoxicity against HL60
Procedure: (§3) The cytotoxic activity against HL60, A549 and HL-7702 cell lines was performed by the MTT method as previously described.

[5] = test system: human lung adenocarcinoma (A549) cell line; assay: Cytotoxicity by the MTT method, A549; conditions: A549, read-out: IC50 cytotoxicity against A549
Procedure: as §3

[6] = in vitro; conditions: human
Procedure: as §3

Row | Structure (SMILES) | MIC [1] | MIC [2] | MIC C. albicans [3] | MIC E. coli [2] | also measured
1 | COC1=CC(=O)OC12Oc1cc(O)cc(C)c1CC2C (racemic) [Compound 4, (±)-Aspersclerolide D] | > 400 µg/mL | > 400 µg/mL | - |  | 
2 | COC1=CC(=O)C(C)C1O (racemic) [Compound 5, (±)-4-hydroxy-3-methoxy-5-methyl-2-cyclopentenone] |  |  | - | - | MIC S. aureus ([1]; 12 h at 37 °C): -
3 | CC(=O)C1(O)OC(=O)C=C1C (stereo not drawn) [Compound 1, Aspersclerolide A] | > 400 µg/mL | > 400 µg/mL | - |  | IC50 [4]: 6.5 µM; IC50 [5]: 8.9 µM; IC50 [6]: 17.6 µM
4 | COC(CO)C1(O)OC(=O)C=C1C (stereo not drawn) [Compound 2, Aspersclerolide B] | 200 µg/mL (≈ 1060 µM) | 200 µg/mL (≈ 1060 µM) | - |  | 
5 | COC1=CC(=O)OC1(O)C(C)Cc1c(C)cc(O)cc1O (stereo not drawn) [Compound 3, Aspersclerolide C] | 200 µg/mL (≈ 680 µM) | 200 µg/mL (≈ 680 µM) | - |  | IC50 [4]: 12.1 µM; IC50 [5]: 16.7 µM; IC50 [6]: 22.8 µM
6 | COC1=CC(=O)OC1(O)C(C)CO (stereo not drawn) [Compound 6, 6-hydroxyl dihydropenicillic acid] | > 400 µg/mL |  | - | - | 
7 | C=C(OC)C1(O)OC(=O)C=C1C (stereo not drawn) [Compound 7, spersclerotioron G] | > 400 µg/mL |  | - | - | 
8 | COc1cccc2c1C(=O)c1c(O)c3c(c(O)c1C2=O)C[C@@](O)(C(=O)CO)C[C@@H]3O[C@H]1C[C@H](N)[C@H](O)[C@H](C)O1 [doxorubicin, reference compound] |  |  |  |  | IC50 [4]: 0.85 µM; IC50 [5]: 1.5 µM; IC50 ([6]; HL-7702 cells (human normal liver, non-cancer)): 8.3 µM
9 | CC(=O)N1CCN(c2ccc(OCC3COC(Cn4ccnc4)(c4ccc(Cl)cc4Cl)O3)cc2)CC1 (stereo not drawn) [ketoconazole, reference compound] |  |  |  |  | MIC [3]: 6.25 µg/mL (≈ 11.8 µM)

Second part, led by results:

Row | MIC [1] | MIC [2] | MIC C. albicans [3] | MIC E. coli [2] | Structure (SMILES) | also measured
10 | 6.25 µg/mL (≈ 36.7 µM) | 12.5 µg/mL (≈ 73.5 µM) |  |  | C=C(C)C1(O)OC(=O)C=C1OC (stereo not drawn) [Compound 8, penicillic acid] | MIC [3]: 50 µg/mL (≈ 294 µM)
11 | > 400 µg/mL |  | - | - | COC1=CC(=O)OC1(O)C(C)C (stereo not drawn) [Compound 9, dihydropenicillic acid] | 
12 | 3.12 µg/mL (≈ 9.66 µM) | 6.25 µg/mL (≈ 19.3 µM) |  |  | O=C(N[C@H](CO)[C@H](O)c1ccc([N+](=O)[O-])cc1)C(Cl)Cl [chloramphenicol, reference compound] | 
